The text below walks through data of patent US12624004B2 (Fudan University, priority 2019, dated 2026).

As usually defined, the ED50 is the midpoint of the dose-response relation. A lower ED50 goes with greater potency. Usually Ki stands for a dissociation constant, usually derived from enzyme kinetics or from competition with a known ligand.

The test system of one assay is Female mice. Nature of the assay: In vivo hot plate method analgesia test. The conditions noted are these: intraperitoneal; for Maximum percentage effective analgesic (% MPE): Table 1-2, hot plate 55° C.; for Maximum percentage effective analgesic (% MPE) / % MPE (5 mg/kg): 5 mg/kg dose; for ED50: Mus musculus, ip, Table 4-2, hot plate; for % MPE: Table 4-2, hot plate 55° C.; for % MPE / Maximum percentage effective analgesia (% MPE): 10 mg/kg dose; for % MPE (5 mg/kg): Table 2-2, hot plate 55° C.; for Maximum percentage effective analgesia (% MPE): Table 5-2, hot plate 55° C. How it is done: Female mice weighing about 20 g were placed on a hot plate apparatus preheated to 55° C., and the latency of the hindfoot response of the mice was used as the pain threshold indicator. Animals were screened before the experiment, and those with response latency less than 5 s or more than 30 s were excluded. To prevent foot scalding, the maximum observation time was set at 60 s. The basal pain threshold was the average of two measurements, with a 5-min interval between measurements. pain thresholds were measured at 15 m, 30 m, 60 m and 120 m after intraperitoneal injection in each group of mice. The percentage effective analgesia (% MPE) was calculated according to the following formula: percentage effective analgesia (% MPE) (post-dose latency−pre-dose latency)/(60−pre-dose latency)×100%. ED50 values were calculated based on the effective percentage of analgesia using the software Graphpad prism 5.0 software.
(§1) Female mice weighing about 20 g were placed on a hot plate apparatus preheated to 55° C., and the latency of the hindfoot response of the mice was used as the pain threshold indicator. Animals were selected before the experiment, and those with response latency less than 5 s or greater than 30 s were excluded. To prevent foot scalding, the maximum observation time was set at 60 s. The basal pain threshold was the average of two measurements, with a 5-min interval between measurements. pain thresholds were measured at 15 min, 30 min, 60 min and 120 min after intraperitoneal administration in each group of mice. The percentage of analgesic effectiveness (% MPE) was calculated according to the following equation. Percentage of effective analgesia (% MPE)_(Pre-dose incubation period−Incubation period after drug administration)/(60-Pre-dose incubation period)×100%. ED50 values were calculated based on the effective percentage of analgesia using GraphPad prism 5.0 software.
as §1, with “were screened” for “were selected”, “measurements. Pain” for “measurements. pain”, “following formula.” for “following equation. Percentage of effective analgesia (% MPE)_(Pre-dose incubation period−Incubation period after drug administration)/(60-Pre-dose incubation period)×100%. ED50 values were calculated based on the effective percentage of analgesia using GraphPad prism 5.0 software.”
ED50 values were calculated based on the effective percentage of analgesia using Graphpad Prism 5.0.
Female mice weighing about 20 g were placed on a hot plate apparatus preheated to 55° C., and the latency of the hindfoot response of the mice was used as the pain threshold indicator. Animals were screened before the experiment, and those with response latency less than 5 s or more than 30 s were excluded. To prevent foot scalding, the maximum observation time was set at 60 s. The basal pain threshold was the average of two measurements, with a 5-min interval between measurements. pain thresholds were measured at 15 min, 30 min, 60 min and 120 min after intraperitoneal administration in each group of mice. The analgesic effective percentage (% MPE) was calculated according to the following formula: analgesic effective percentage (% MPE)=(latency after drug administration−latency before drug administration)/(60−latency before drug administration)×100%. ED50 values were calculated based on the effective percentage of analgesia using the software Graphpad prism 5.0.
Female mice weighing about 20 g were placed on a hot plate apparatus preheated to 55° C. and the latency of the hindfoot response was used as an indicator of pain threshold. […]

Another assay deals with T1, μ opioid receptor (Homo sapiens, UniProt P35372).
T1 construct: expressed in transfected cells; host or cells: CHO cells (membranes)
In words: Competition binding assay on membranes of CHO cells expressing μ opioid receptor, [3H]-labeled ligand. The conditions noted are these: Table 5-1; read-out: μOR Ki. How it is done: (§2) CHO cells expressing p opioid receptor, δ opioid receptor and κ opioid receptor were cultured in 10 cm^2 culture dishes (F-12 medium+10% neonatal bovine serum) for several days, and the culture fluid was aspirated after the cells had grown to the bottom of the dishes; 3 ml of PBS/EDTA solution (0.1M NaCl, 0.01M NaH2PO4, 0.04% EDTA) was added to digest the cells for 3-5 min. Add ice-cold homogenate (50 mM HEPES PH 7.4, 3 mM MgCl, 1 mM EGTA) to the centrifuge tube, transfer the solution and sediment to a homogenizer and homogenize; then transfer the homogenate to a centrifuge tube and centrifuge at 18000 rpm. Centrifuge for 15 min, two times; the obtained precipitate was homogenized with appropriate amount of 50 mM Tris-HCl, pH 7.4 buffer and divided into centrifuge tubes and stored at −70° C. in the refrigerator until use.
(§3) The total binding tube was spiked with 20-30 μg of the expressed membrane receptor protein and […] ligand (1-2 nM), the corresponding non-specific binding tube was spiked with 1 μM of the corresponding ligand, and the sample tubes were spiked with various screened opioid ligands in a final volume of […], incubated at 30° C. for 30 min, and the reaction was terminated in ice water. […] The samples were filtered under negative pressure through GF/C (whatman) glass fiber filter paper on a Millipore sample collector. The reaction was rinsed three times with 4 ml of 50 mMV Tris-HCl (pH 7.4), the filter paper was dried and placed in 0.5 ml Eppendorf tubes with 0.5 ml of lipophilic scintillation solution, the radioactivity was measured by PERKIN ELMER PRI-CARB 2910 liquid scintillation counter and the inhibition rate was calculated. Inhibition rate (or binding rate)=(total binding rate dpm−sample tube dpm)/(total binding tube dpm−non-specific binding tube dpm)×100%
(§4) IC50 was calculated using Prism 5.0 software. the Ki value was calculated as follows, Ki=IC50/(1+[IL]/Kd), [lL] is the concentration of the added labeled ligand and Kd is the equilibrium dissociation parameter of the labeled ligand.
(§5) CHO cells expressing p opioid receptor, δ opioid receptor and κ opioid receptor were cultured in a 10 cm^2 culture dish (F-12 medium+10% neonatal bovine serum) for several days, and the culture fluid was aspirated after the cells grew to the bottom of the dish. 3 mL PBS/EDTA solution (0.1 M NaCl, 0.01 M NaH2PO4, 0.04% EDTA) was added to digest the cells for 3˜5 min, blew with a pipette to completely dislodge the cells. The cells were collected in a 40 mL centrifuge tube, centrifuged at 5000 rpm for 5 min. The supernatant was removed and the ice-cold homogenate (50 mM HEPES pH 7.4, 3 mM MgCl2, 1 mM EGTA) was added to the centrifuge tube. The solution and the precipitate were transferred to a homogenizer. Then the homogenate was transferred to a centrifuge tube and centrifuged at 18000 rpm for 15 min. The precipitate was centrifuged twice at 18000 rpm for 15 min. The obtained precipitate was homogenized by adding appropriate amount of 50 mM Tris-HCl, pH 7.4 buffer and divided into centrifuge tubes and stored at −70° C. in the refrigerator until use.
(§6) The total binding tube was added with 20-30 μg of expressed membrane receptor protein and [3H]-labeled ligand (1-2 nM). The corresponding non-specific binding tube was added with 1 μM of the corresponding ligand, and the sample tubes were added with various screened opioid ligands in a final volume of 100 μL. All of them were incubated for 30 min at 30° C., and the reaction was terminated in ice water. The samples were filtered under negative pressure through GF/C (Whatman) glass fiber filter paper on a Millipore sample collector. The reaction was rinsed three times with 4 mL of 50 mM Tris-HCl (pH 7.4), the filter paper was dried and placed in 0.5 mL Eppendorf tubes with 0.5 mL of lipophilic scintillation solution. […]

The target in the next assay is T2, δ opioid receptor (Homo sapiens, UniProt P41143).
T2 construct: expressed in transfected cells; host or cells: CHO cells (membranes)
Nature of the assay: Competition binding assay on membranes of CHO cells expressing δ opioid receptor, [3H]-labeled ligand. To be noted: Table 5-1; read-out: δOR Ki. Here is the method:
as §2, §3, §4, §5, §6

In the next assay the target is T3, κ opioid receptor (Homo sapiens, UniProt P41145).
T3 construct: expressed in transfected cells; host or cells: CHO cells (membranes)
In words: Competition binding assay on membranes of CHO cells expressing κ opioid receptor, [3H]-labeled ligand. The conditions noted are these: Table 5-1; read-out: κOR Ki. How it is done:
as §2, §3, §4, §5, §6

Take `COc1cccc(C2(OC(=O)c3ccccc3)CCC(N(C)S(=O)(=O)Cc3ccccc3)CC2CN(C)C)c1.Cl` (stereo not drawn): in the assay on Female mice, the “Maximum percentage effective analgesic (% MPE)” value came to 37.2%.
Consider `COc1cccc(C2(OC(=O)c3ccccc3)CCC(N(C)S(=O)(=O)Cc3cccc(Cl)c3)CC2CN(C)C)c1.Cl` (stereo not drawn), for which the “Maximum percentage effective analgesic (% MPE)” value with Female mice stood at 0%.
In the case of `COc1cccc([C@]2(O)CCN(C(=O)Cc3cc(F)c(F)cc3F)CC2CN(C)C)c1.Cl` (stereo partly drawn), it took a dose of 0.54 mg/kg to reach the 50% effect level with Female mice (ED50).
Turning to `CN(C)C[C@@H]1CN(C(=O)Cc2cc(F)c(F)cc2F)CC[C@@]1(O)c1cccc(O)c1.Cl`, the “% MPE” value in the assay on Female mice is given as 29.7%.
The same measure, in the same setting: to `COc1cccc([C@@]2(O)CCN(C(=O)Cc3cc(F)c(F)cc3F)C[C@@H]2CN(C)C)c1.Cl` belongs 10.5%.
As for `CN(C)CC1CN(S(=O)(=O)Cc2ccccc2)CCC1(O)c1cccc(OC(F)(F)F)c1.Cl` (stereo not drawn), the “% MPE (5 mg/kg)” value with Female mice is reported as 20.2%.
Same read-out and setting: to `COc1cccc(C2(OC(F)F)CCN(S(=O)(=O)Cc3ccccc3)CC2CN(C)C)c1.Cl` (stereo not drawn) belongs 8.38%.
In the case of `COc1cccc(C2(O)CCC(NS(=O)(=O)Cc3cccc(Cl)c3)CC2CN(C)C)c1.Cl` (stereo not drawn) [1-(3-Chlorophenyl)-N-(3-((dimethylamino)methyl)-4-hydroxy-4-(3-methoxyphenyl)cyclohexyl)methanesulfonamide hydrochloride], the “Maximum percentage effective analgesic (% MPE)” value in the assay on Female mice was 15.2%.
The same measure, in the same setting: to `COc1cccc(C2(O)CCC(NS(=O)(=O)c3cccc(Cl)c3)CC2CN(C)C)c1.Cl` (stereo not drawn) [3-Chloro-N-(3-((dimethylamino)methyl)-4-hydroxy-4-(3-methoxyphenyl)cyclohexyl)benzenesulfonamide hydrochloride] belongs 11.7%; to `COc1cccc(C2(OC(=O)c3ccccc3)CCC(NS(=O)(=O)c3cccc(Cl)c3)CC2CN(C)C)c1.Cl` (stereo not drawn) [4-((3-Chlorophenyl)sulfonylamino)-2-((dimethylamino)methyl)-1-(3-methoxyphenyl)cyclohexyl benzoate hydrochloride], 11.6%.
Same read-out and setting: for `COc1cccc(C2(O)CCC(S(=O)(=O)Cc3ccccc3)CC2CN(C)C)c1.Cl` (stereo not drawn) [4-(Benzylsulfonyl)-2-((dimethylamino)methyl)-1-(3-methoxyphenyl)cyclohexane-1-ol hydrochloride] the value was 21.7%.
For the molecule `COc1cccc([C@]2(O)CCN(S(=O)(=O)Cc3ccccc3)C[C@H]2CN(C)C)c1.Cl` [(3R,4S)-1-(Benzylsulfonyl)-3-((dimethylamino)methyl)-4-(3-methoxyphenyl)piperidin-4-ol hydrochloride], the median effective dose (ED50) in the assay on Female mice was found to be 0.49 mg/kg.
`COc1cccc(C2(O)CCN(C(=O)CCc3cccc(C(F)(F)F)c3)CC2CN(C)C)c1.Cl` (stereo not drawn) [FWBE10, 1-(3-((Dimethylamino)methyl)-4-hydroxy-4-(3-methoxyphenyl)piperidin-1-yl)-3-(3-(trifluoromethyl)phenyl)propyl-1-one hydrochloride]: in the assay on Female mice, the “Maximum percentage effective analgesia (% MPE)” value was 17.33%. The Ki on μ opioid receptor is 219 ± 9.8 nM; on δ opioid receptor, above 10000 nM.
On the same counts, the results for `COc1cccc(C2(O)CCN(C(=O)Cc3cccc(Br)c3)CC2CN(C)C)c1.Cl` (stereo not drawn) [FWBE11, 2-(3-Bromophenyl)-1-(3-((dimethylamino)methyl)-4-hydroxy-4-(3-methoxyphenyl)piperidin-1-yl)ethyl-1-one hydrochloride] are 98.31%, 57.6 ± 0.1 nM and above 10000 nM.
In the case of `COc1cccc(C2(O)CCN(C(=O)Cc3c[nH]c4ccccc34)CC2CN(C)C)c1` (stereo not drawn) [FWBE13, 1-(3-((Dimethylamino)methyl)-4-hydroxy-4-(3-methoxyphenyl)piperidin-1-yl)-2-(1H-indol-3-yl)ethyl-1-one], the “Maximum percentage effective analgesia (% MPE)” value in the assay on Female mice is recorded as 66.95%. For the same molecule, the results for the inhibition constant (Ki) at κ opioid receptor and at μ opioid receptor were 3100 ± 79.5 nM and 115 ± 4.1 nM, respectively.
Regarding `COc1cccc(C2(O)CCC(NS(=O)(=O)c3ccccc3)CC2CN(C)C)c1.Cl` (stereo not drawn) [N-(3-((Dimethylamino)methyl)-4-hydroxy-4-(3-methoxyphenyl)cyclohexyl)benzenesulfonamide hydrochloride], the “Maximum percentage effective analgesic (% MPE)” value with Female mice worked out at 10.3%.
Same read-out and setting: for `COc1cccc(C2(O)CCC(N(Cc3ccccc3)S(=O)(=O)c3cccc(Cl)c3)CC2CN(C)C)c1.Cl` (stereo not drawn) [N-Benzyl-3-chloro-N-(3-((dimethylamino)methyl)-4-hydroxy-4-(3-methoxyphenyl)cyclohexyl)benzenesulfonamide hydrochloride] the value was 6%.
Regarding `COc1cccc(C2(O)CCC(N(Cc3ccccc3)S(=O)(=O)c3ccccc3)CC2CN(C)C)c1.Cl` (stereo not drawn) [N-Benzyl-N-(3-((dimethylamino)methyl)-4-hydroxy-4-(3-methoxyphenyl)cyclohexyl)benzenesulfonamide hydrochloride], the “Maximum percentage effective analgesic (% MPE)” value in the assay with Female mice is on record as 0%.
